Measured values reported in patent US7928140B2, “Benzothiazole PI3 kinase modulators for cancer treatment” (Amgen Inc., priority 2007, dated 2011).
pIC50: −log10 of the molar value. Like-named read-outs stand apart in the source and are kept apart here.

Tests used:
PI3K α = biological target: T1, PI3K α (Homo sapiens, UniProt P42336); experiment: In vitro PI3 kinase enzyme assay (alpha), ATP loss, bioluminescence; assay type: biochemical; conditions: read-out: PI3Kα ATP loss IC50;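 also: purified p110α/p85 heterodimer acting on PtdIns(4,5)P2 at room temperature, remaining ATP read by luminescence, inhibition scaled between compound-free wells with and without enzyme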
T1 construct: Full length p110 subunits of PI3K α, β and δ, N-terminally labeled with polyHis tag; polyHis (N); made in house; host or cells: Sf9 insect cells (baculovirus)
T1 sequence (P42336 whole entry, species assumed): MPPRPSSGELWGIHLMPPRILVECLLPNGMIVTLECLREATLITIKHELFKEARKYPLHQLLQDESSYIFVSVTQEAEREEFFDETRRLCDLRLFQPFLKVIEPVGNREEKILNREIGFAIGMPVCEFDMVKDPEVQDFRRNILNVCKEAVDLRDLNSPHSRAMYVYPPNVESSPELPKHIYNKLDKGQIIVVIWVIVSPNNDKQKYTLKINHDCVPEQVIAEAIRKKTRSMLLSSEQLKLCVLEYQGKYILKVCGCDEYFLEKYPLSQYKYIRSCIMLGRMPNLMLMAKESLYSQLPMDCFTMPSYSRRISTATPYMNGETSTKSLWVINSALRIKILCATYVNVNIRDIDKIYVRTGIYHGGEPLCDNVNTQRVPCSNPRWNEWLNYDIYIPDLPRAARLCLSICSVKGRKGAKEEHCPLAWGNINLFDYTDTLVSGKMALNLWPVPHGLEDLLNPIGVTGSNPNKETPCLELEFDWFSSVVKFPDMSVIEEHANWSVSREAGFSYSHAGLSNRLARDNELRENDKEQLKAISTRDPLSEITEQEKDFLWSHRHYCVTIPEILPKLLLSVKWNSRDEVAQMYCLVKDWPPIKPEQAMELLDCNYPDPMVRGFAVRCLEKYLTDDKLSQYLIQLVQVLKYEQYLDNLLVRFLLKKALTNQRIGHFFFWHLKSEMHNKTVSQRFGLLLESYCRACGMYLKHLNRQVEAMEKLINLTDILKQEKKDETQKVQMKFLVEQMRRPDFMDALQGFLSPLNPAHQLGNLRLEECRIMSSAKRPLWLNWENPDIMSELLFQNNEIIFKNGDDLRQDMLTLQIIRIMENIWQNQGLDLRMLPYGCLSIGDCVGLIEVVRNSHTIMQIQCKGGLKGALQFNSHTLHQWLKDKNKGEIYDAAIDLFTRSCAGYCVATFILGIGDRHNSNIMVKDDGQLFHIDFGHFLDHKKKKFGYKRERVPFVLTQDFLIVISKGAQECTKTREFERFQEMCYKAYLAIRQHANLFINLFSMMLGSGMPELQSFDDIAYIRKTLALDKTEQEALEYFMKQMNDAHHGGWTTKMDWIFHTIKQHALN
T1 sequence (P27986 whole entry partner, species assumed): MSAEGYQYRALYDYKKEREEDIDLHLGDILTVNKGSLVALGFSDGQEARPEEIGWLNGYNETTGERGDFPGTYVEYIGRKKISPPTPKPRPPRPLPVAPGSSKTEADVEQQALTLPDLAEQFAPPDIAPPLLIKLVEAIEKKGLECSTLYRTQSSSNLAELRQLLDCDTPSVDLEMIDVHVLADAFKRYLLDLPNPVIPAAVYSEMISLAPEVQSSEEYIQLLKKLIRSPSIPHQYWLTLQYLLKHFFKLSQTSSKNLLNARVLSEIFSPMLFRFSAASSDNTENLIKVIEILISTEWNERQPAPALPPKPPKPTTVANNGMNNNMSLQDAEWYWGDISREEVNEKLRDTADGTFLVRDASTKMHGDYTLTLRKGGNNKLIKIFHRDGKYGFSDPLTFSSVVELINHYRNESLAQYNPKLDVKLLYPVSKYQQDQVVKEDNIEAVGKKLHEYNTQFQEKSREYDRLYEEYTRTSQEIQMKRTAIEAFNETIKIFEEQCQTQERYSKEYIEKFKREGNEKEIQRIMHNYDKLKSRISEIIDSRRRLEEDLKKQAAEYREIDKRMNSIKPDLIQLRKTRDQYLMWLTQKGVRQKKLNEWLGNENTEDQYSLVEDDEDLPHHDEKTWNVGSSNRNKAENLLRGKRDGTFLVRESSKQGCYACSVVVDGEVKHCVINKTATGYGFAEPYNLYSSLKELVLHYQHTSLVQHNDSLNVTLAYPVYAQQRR

PI3K β = biological target: T2, PI3K β (Homo sapiens, UniProt P42338); experiment: In vitro PI3 kinase enzyme assay (beta), ATP loss, bioluminescence; assay type: biochemical; conditions: read-out: PI3Kβ ATP loss IC50;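 also: purified p110β/p85 heterodimer with PtdIns(4,5)P2 as acceptor, incubated at room temperature, leftover ATP read by luminescence, inhibition scaled to compound-free wells with and without enzyme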
T2 construct: Full length p110 subunits of PI3K α, β and δ, N-terminally labeled with polyHis tag; polyHis (N); made in house; host or cells: Sf9 insect cells (baculovirus)
T2 sequence (P42338 whole entry): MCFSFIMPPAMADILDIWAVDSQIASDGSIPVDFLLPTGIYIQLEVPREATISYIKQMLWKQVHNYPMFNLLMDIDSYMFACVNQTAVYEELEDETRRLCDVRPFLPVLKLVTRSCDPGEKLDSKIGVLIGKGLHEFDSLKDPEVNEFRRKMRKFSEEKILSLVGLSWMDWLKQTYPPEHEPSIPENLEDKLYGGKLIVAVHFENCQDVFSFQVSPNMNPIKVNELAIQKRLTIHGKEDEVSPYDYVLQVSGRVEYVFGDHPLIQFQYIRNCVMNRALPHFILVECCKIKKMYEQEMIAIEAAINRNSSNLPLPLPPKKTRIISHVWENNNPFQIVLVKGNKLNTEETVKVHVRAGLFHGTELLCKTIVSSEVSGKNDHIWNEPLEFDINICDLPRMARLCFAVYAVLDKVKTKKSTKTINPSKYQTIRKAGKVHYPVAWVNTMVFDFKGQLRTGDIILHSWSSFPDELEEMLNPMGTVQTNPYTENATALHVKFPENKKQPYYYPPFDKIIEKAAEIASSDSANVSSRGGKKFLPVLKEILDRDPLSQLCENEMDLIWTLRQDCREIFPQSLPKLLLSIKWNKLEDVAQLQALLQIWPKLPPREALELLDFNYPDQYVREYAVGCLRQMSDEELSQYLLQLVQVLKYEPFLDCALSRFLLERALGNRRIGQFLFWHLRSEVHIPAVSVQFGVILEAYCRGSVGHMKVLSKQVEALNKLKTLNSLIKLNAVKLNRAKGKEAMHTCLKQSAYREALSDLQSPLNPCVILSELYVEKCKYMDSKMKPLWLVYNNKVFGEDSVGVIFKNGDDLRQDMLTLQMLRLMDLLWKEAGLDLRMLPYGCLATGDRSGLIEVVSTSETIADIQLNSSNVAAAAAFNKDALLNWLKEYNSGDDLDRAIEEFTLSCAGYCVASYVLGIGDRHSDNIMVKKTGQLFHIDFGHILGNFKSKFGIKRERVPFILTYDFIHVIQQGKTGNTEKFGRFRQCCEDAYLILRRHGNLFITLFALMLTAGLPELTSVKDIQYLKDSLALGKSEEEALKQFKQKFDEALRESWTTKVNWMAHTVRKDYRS
T2 sequence (P27986 whole entry partner): as the sequence (P27986 whole entry partner, species assumed) above
Procedure: Full length p110 subunits of PI3K α, β and δ, N-terminally labeled with polyHis tag, were co-expressed with p85 in baculovirus expression vectors in sf9 insect cells. P110/p85 heterodimers were purified by sequential Ni-NTA, Q-HP, and Superdex-100 chromatography. Purified α, β and δ isozymes were stored at −20° C. in 20 mM Tris, pH 8, 0.2M NaCl, 50% glycerol, 5 mM DTT, 2 mM Na cholate.
PI3K enzyme assays (alpha, beta, delta and gamma) were performed in 25 mL with the above final concentrations of components in white polypropylene plates (Costar catalogue #3355). Phosphatidyl inositol phosphoacceptor, PtdIns(4,5)P2 (eg. P4508) was obtained from Echelon Biosciences. The ATPase activity of the alpha and gamma isozymes was not greatly stimulated by PtdIns(4,5)P2 under these conditions and was therefore omitted from the assay of these isozymes. Test compounds were dissolved in DMSO and diluted with three-fold serial dilutions. The compound in DMSO (1 μL) was added per test well, and the inhibition relative to reactions containing no compound, with and without enzyme was determined. After assay incubation at RT, the reaction was stopped and residual ATP determined by addition of an equal volume of a commercial ATP bioluminescence kit (Perkin Elmer EasyLite) according to the manufacturer's instructions, and detected using an Analyst GT luminometer.

[1] = system: phosphorylation of Serine 473 in Akt, HCT 116 human colon carcinoma cells; experiment: Cell-based phospho-AKT Ser473 assay (MSD sandwich immunoassay, IGF-1 stimulated)
Procedure: This assay determines the ability of test compounds to inhibit the phosphorylation of […] in Akt using a MSD based sandwich immunoassay (Meso Scale Detection, catalogue # N411CAB-1). […] Prior to the assay cells were detached from the culture flask with trypsin, and re-suspended in complete media to give a final concentration of 1.6×10^5 cells per ml. Aliquots (100 μl) of the HCT116 cell suspension were seeded into each well of a 96 well tissue culture plate (Corning Incorporated COSTAR, catalogue#3595) to give a final density of 16,000 cells per well. Cells were then incubated overnight at 37° C. The following day the cells were treated with serially diluted test compounds and incubated for 2 hours at 37° C. […] As a maximum response control, wells contained 0.5% DMSO in place of test compound. The plates were mixed at 700 rpm for 2 min to ensure even distribution of the test compound and incubated for 2 hours at 37° C. Cells were then stimulated with insulin-like growth factor 1 (Sigma, product #13769) at final concentration of 100 ng/ml for 15 minutes at 37° C. The media was then removed and the cells treated with 80 μl cell-lysis buffer (MSD) containing a cocktail of protease and phosphatase inhibitors for one hour at 4° C. […] The detection antibody was removed and plates were then washed four times with 200 μl per well of Tris wash buffer. An aliquot of 150 μl of diluted MSD read buffer was then applied to each well, and the electrochemiluminescent signal was measured using a MSD SECTORTM plate reader. This instrument measures the intensity of emitted light to determine a quantitative measure of phosphorylated Akt in each well. The dose-response data obtained with each compound were analyzed and the IC50 inhibition of Akt phosphorylation at Ser473 calculated.

[2] = HCT 116 cells, read-out: HCT 116 pAKT IC50
[3] = Homo sapiens, HCT-116, HCT 116 cells, read-out: HCT 116 pAKT IC50

Compound	pIC50 (PI3K α)	pIC50 (PI3K β)	pIC50 [1, 2]	pIC50 [1, 3]	pIC50 ([1]; Homo sapiens, HCT-116, read-out: HCT 116 pAKT IC50)
CC(=O)Nc1nc2ccc(-c3cnc(Cl)c(NS(=O)(=O)c4ccc(C(C)O)cc4)c3)cc2s1 (single isomer, unassigned) [Example 257, N-(6-(6-chloro-5-(((4-(1-hydroxyethyl)phenyl)sulfonyl)amino)-3-pyridinyl)-1,3-benzothiazol-2-yl)acetamide]	8.21	8.14	8.08		
CC(=O)Nc1nc2ccc(-c3cnc(Cl)c(NS(=O)(=O)c4ccc(C(C)O)cc4)c3)cc2s1 (single isomer, unassigned) [Example 258]	8.12	7.94	7.31		
CC(=O)Nc1nc2ccc(-c3ccnc(OCc4cccnc4)n3)cc2s1 [Example 2, N-(6-(2-(3-pyridinylmethoxy)-4-pyrimidinyl)-1,3-benzothiazol-2-yl)acetamide]	6.34	< 4.40		6.10	
CC(=O)Nc1nc2ccc(-c3ccnc(OCc4ccccc4)n3)cc2s1 [Example 3, N-(6-(2-(benzyloxy)-4-pyrimidinyl)-1,3-benzothiazol-2-yl)acetamide]	7.02	6.62		5.45	
CC(=O)Nc1nc2ccc(-c3ccnc(OCCCc4ccccc4)n3)cc2s1 [Example 4, N-(6-(2-(3-phenylpropoxy)-4-pyrimidinyl)-1,3-benzothiazol-2-yl)acetamide]	6.82	6.41		5.63	
CC(=O)Nc1nc2ccc(-c3ccnc(OCCc4ccccc4)n3)cc2s1 [Example 7, N-(6-(2-(2-phenylethoxy)-4-pyrimidinyl)-1,3-benzothiazol-2-yl)acetamide]	6.65	5.58			< 4.60
COc1ccc(Sc2nccc(-c3ccc4nc(NC(C)=O)sc4c3)n2)cc1 [Example 16, N-(6-(2-(4-Methoxyphenylthio)pyrimidin-4-yl)benzo[d]thiazol-2-yl)acetamide]	7.27	6.97		6.08	
CC(=O)Nc1nc2ccc(-c3ccnc(OCc4ccncc4)n3)cc2s1 [Example 17, N-(6-(2-(4-pyridinylmethoxy)-4-pyrimidinyl)-1,3-benzothiazol-2-yl)acetamide]	6.28	4.96		5.97	
CC(=O)Nc1nc2ccc(-c3ccnc(OCCCn4ccnn4)n3)cc2s1 [Example 20, N-(6-(2-(3-(1H-1,2,3-triazol-1-yl)propoxy)-4-pyrimidinyl)-1,3-benzothiazol-2-yl)acetamide]	6.58	5.28		5.71	
CC(=O)Nc1nc2ccc(-c3ccnc(Sc4ccc(C)cc4)n3)cc2s1 [Example 36, N-(6-(2-((4-methylphenyl)sulfanyl)-4-pyrimidinyl)-1,3-benzothiazol-2-yl)acetamide]	7.23	6.26		5.63	
CC(=O)Nc1nc2ccc(-c3cnc(Cl)c(NS(=O)(=O)c4ccc(C(F)(F)F)cc4)c3)cc2s1 [Example 190, N-(6-(6-chloro-5-(4-(trifluoromethyl)phenylsulfonamido)pyridin-3-yl)benzo[d]thiazol-2-yl)acetamide]		8.13		7.94	
CC(=O)Nc1nc2ccc(-c3cnc(Cl)c(NS(=O)(=O)c4ccc(C(C)(C)C)cc4)c3)cc2s1 [Example 191, N-(6-(5-(4-tert-butylphenylsulfonamido)-6-chloropyridin-3-yl)benzo[d]thiazol-2-yl)acetamide]		8.38		8.59	
Nc1nc2ccc(-c3cnc(Cl)c(NS(=O)(=O)c4ccc(F)cc4)c3)cc2s1 [Example 192, N-(5-(2-aminobenzo[d]thiazol-6-yl)-2-chloropyridin-3-yl)-4-fluorobenzenesulfonamide]		7.94		6.82	
COc1ccc(S(=O)(=O)Nc2cncc(-c3ccc4nc(NC(C)=O)sc4c3)c2)cc1 [Example 195, N-(6-(5-(4-methoxyphenylsulfonamido)pyridin-3-yl)benzo[d]thiazol-2-yl)acetamide]		7.66		7.48	
COc1cc(-c2ccc3nc(NC(C)=O)sc3c2)cnc1Br [Example 237, N-(6-(6-bromo-5-methoxypyridin-3-yl)benzo[d]thiazol-2-yl)acetamide]	5.08			< 5.30	
CC(=O)Nc1nc2ccc(-c3cnc(Cl)c(F)c3)cc2s1 [Example 238, N-(6-(6-chloro-5-fluoropyridin-3-yl)benzo[d]thiazol-2-yl)acetamide]	6.60			5.83	
N-(6-(2-(3-morpholino)propoxy)-4-pyrimidinyl)-1,3-benzothiazol-2-yl)acetamide [Example 10]		4.96	6.10		

Continued, in another order:

pIC50 (PI3K α)	pIC50 (PI3K β)	pIC50 [1, 2]	pIC50 [1, 3]	Compound	pIC50 ([1]; Homo sapiens, HCT-116, read-out: HCT 116 pAKT IC50)
6.62	5.67		6.04	CC(=O)Nc1nc2ccc(-c3ccnc(OC(C)C)n3)cc2s1 [Example 6, N-(6-(2-(1-methylethoxy)-4-pyrimidinyl)-1,3-benzothiazol-2-yl)acetamide]	
6.91	< 4.40		< 4.40	CC(=O)Nc1nc2ccc(-c3ccnc(OCc4ccc5ncccc5c4)n3)cc2s1 [Example 22, N-(6-(2-(6-quinolinylmethoxy)-4-pyrimidinyl)-1,3-benzothiazol-2-yl)acetamide]	
7.21	6.51		6.46	CC(=O)Nc1nc2ccc(-c3ccnc(Sc4ccccc4F)n3)cc2s1 [Example 23, N-(6-(2-((2-fluorophenyl)sulfanyl)-4-pyrimidinyl)-1,3-benzothiazol-2-yl)acetamide]	
6.91	6.39		5.99	CC(=O)Nc1nc2ccc(-c3ccnc(Sc4ccc(F)cc4)n3)cc2s1 [Example 26, N-(6-(2-((4-fluorophenyl)sulfanyl)-4-pyrimidinyl)-1,3-benzothiazol-2-yl)acetamide]	
7.40	6.70		6.23	COc1ccc(Sc2nccc(-c3ccc4nc(NC(C)=O)sc4c3)n2)c(C)c1 [Example 27, N-(6-(2-((4-methoxy-2-methylphenyl)sulfanyl)-4-pyrimidinyl)-1,3-benzothiazol-2-yl)acetamide]	
7.24	5.97		5.45	CC(=O)Nc1nc2ccc(-c3ccnc(Sc4cccc(C)c4)n3)cc2s1 [Example 35, N-(6-(2-((3-methylphenyl)sulfanyl)-4-pyrimidinyl)-1,3-benzothiazol-2-yl)acetamide]	
7.08	4.60		5.98	CC(=O)Nc1nc2ccc(-c3ccnc(OCc4ccc5c(c4)OCO5)n3)cc2s1 [Example 40, N-(6-(2-(1,3-benzodioxol-5-ylmethoxy)-4-pyrimidinyl)-1,3-benzothiazol-2-yl)acetamide]	
6.30	4.37		5.21	CC(=O)Nc1nc2ccc(-c3ccnc(OCC(C)(C)C)n3)cc2s1 [Example 42, N-(6-(2-(2,2-dimethylpropoxy)-4-pyrimidinyl)-1,3-benzothiazol-2-yl)acetamide]	
6.98	6.29		5.97	CC(=O)Nc1nc2ccc(-c3ccnc(O[C@H](C)c4ccccc4)n3)cc2s1 [Example 43, N-(6-(2-((1R)-1-phenylethoxy)-4-pyrimidinyl)-1,3-benzothiazol-2-yl)acetamide]	
7.01	5.56		6.24	CC(=O)Nc1nc2ccc(-c3ccnc(OCCCc4ccncc4)n3)cc2s1 [Example 44, N-(6-(2-(3-(4-pyridinyl)propoxy)-4-pyrimidinyl)-1,3-benzothiazol-2-yl)acetamide]	
6.16	4.74		5.94	COCCNc1nccc(-c2ccc3nc(NC(C)=O)sc3c2)n1 [Example 47, N-(6-(2-((2-methoxyethyl)amino)-4-pyrimidinyl)-1,3-benzothiazol-2-yl)acetamide]	
	7.98		7.77	CC(=O)Nc1nc2ccc(-c3cnc(Cl)c(NS(=O)(=O)c4cccc(F)c4)c3)cc2s1 [Example 183, N-(6-(6-chloro-5-(3-fluorophenylsulfonamido)pyridin-3-yl)benzo[d]thiazol-2-yl)acetamide]	
	8.09		8.23	CC(=O)Nc1nc2ccc(-c3cnc(Cl)c(NS(=O)(=O)c4cccc(Cl)c4)c3)cc2s1 [Example 185, N-(6-(6-chloro-5-(3-chlorophenylsulfonamido)pyridin-3-yl)benzo[d]thiazol-2-yl)acetamide]	
	6.93		7.15	COc1ccc(S(=O)(=O)Nc2cc(-c3ccc4nc(NC(C)=O)sc4c3)ccn2)cc1 [Example 217, N-(6-(2-(4-methoxyphenylsulfonamido)pyridin-4-yl)benzo[d]thiazol-2-yl)acetamide]	
